# Legend:
# [1] = pH stability: half-lives for P—N bond hydrolysis of model linkers; format: physicochemical
# From the text: The present disclosure provides a method of screening for conjugates that can deliver an agent at a specific pH. In one aspect, conjugates having formula (I) comprising various substituents neighboring the ionizable group and having varying length between the ionizable group and the phosphorus center could be screened to determine which conjugates will hydrolyze at pH 3.0, 3.5, 4.0, 4.5, 5.0, 5.5, 6.0, and 6.5. In another aspect, a specific conjugate can be screened to determine at which pH it will hydrolyze or which pH its rate of hydrolysis is the fastest. The hydrolysis of the conjugate can be monitored by nuclear magnetic resonance (NMR) (FIG. 6), HPLC, spectrophotometric methods, or mass spectrometry.
# It was observed from studies on distance effects that proximity of a neighboring, but electronically isolated, functional group, can be used to alter the stability of a phorphoramidate bond.
# [2] = Plasma stability of cleavable linkers; format: in vitro ADME
# Experimental: When a conjugate is administered to a subject in vivo, its plasma stability is important. The present disclosure provides conjugates with the desired plasma stability. Plasma stability of cleavable linkers with the desired release profile are provided herein.
Compound,"½ Lives for P—N Bond Hydrolysis, pH 3 [1]","½ Lives for P—N Bond Hydrolysis, pH 5.5 ([1]; pH 5.5)","½ Lives for P—N Bond Hydrolysis, pH 6.5 [1]","½ Lives for P—N Bond Hydrolysis, pH 7.4 [1]","½ Lives for P—N Bond Hydrolysis, pH 4.5 [1]",also measured
CN(c1ccccc1)P(=O)(O)OCCCc1ccccn1 [Entry H135],0.48 hr,2.1 hr,3.9 hr,1.3 days,–,–
Cc1ccc(C(=O)NC(COP(=O)(O)NCCc2ccccc2)C(=O)O)cc1 (stereo not drawn) [Entry H157],–,38.5 min,1.93 hr,19.3 hr,5.25 min,–
O=P(O)(NCCc1ccccc1)OCCc1cccnc1 [Entry H97],2.8 hr,1.6 days,4 days,16 days,–,–
Cc1ccc(C(=O)NC(COP(=O)(O)Nc2ccccc2)C(=O)O)cc1 (stereo not drawn) [Entry H159],12.8 min,19.25 hr,2.0 days,26.7 days,3.21 hr,–
Cc1ccc(C(=O)NC(COP(=O)(O)N(C)CCc2ccccc2)C(=O)O)cc1 (stereo not drawn) [Entry H155],–,3.98 min,9.63 min,1.93 hr,–,–
O=P(O)(Nc1ccccc1)OCCc1cccnc1 [Entry H113],4 days,8 days,2 days,16 days,20 days,"½ Lives for P—N Bond Hydrolysis, pH 6.5 (result in words) [1]: Stable"
CN(CCc1ccccc1)P(=O)(O)OCCc1cccnc1 [Entry H99],0.39 hr,3.2 hr,9.6 hr,1.6 days,1.93 hr,–
O=P(O)(NCCc1ccccc1)OCCCc1cccnc1 [Entry H5],1.9 hr,8 day days,–,90 day days,19.3 hr,"½ Lives for P—N Bond Hydrolysis, pH 6.5 (result in words) [1]: Stable"
O=P(O)(Nc1ccccc1)OCCc1ccccn1 [Entry H85],0.32 hr,0.96 hr,1.9 hr,9.6 hr,–,–
Cc1ccc(C(=O)NC(COP(=O)(O)N(C)c2ccccc2)C(=O)O)cc1 (stereo not drawn) [Entry H161],–,16.5 min,38.5 min,6.42 hr,0.98 min,–
CN(c1ccccc1)P(=O)(O)OCCc1cccnc1 [Entry H105],0.64 hr,9.6 hr,19.3 hr,10 days,3.85 hr,–
CN(CCc1ccccc1)P(=O)(O)OCCc1ccccn1 [Entry H69],–,–,–,–,–,"½ Lives for P—N Bond Hydrolysis, pH 3 (result in words) [1]: Unstable; ½ Lives for P—N Bond Hydrolysis, pH 4.5 (result in words) [1]: Unstable; ½ Lives for P—N Bond Hydrolysis, pH 5.5 (result in words) ([1]; pH 5.5): Unstable; ½ Lives for P—N Bond Hydrolysis, pH 6.5 (result in words) [1]: Unstable; ½ Lives for P—N Bond Hydrolysis, pH 7.4 (result in words) [1]: Unstable"
CN(c1ccccc1)P(=O)(O)OCCc1ccccn1 [Entry H115],–,–,–,–,–,"½ Lives for P—N Bond Hydrolysis, pH 3 (result in words) [1]: Unstable; ½ Lives for P—N Bond Hydrolysis, pH 4.5 (result in words) [1]: Unstable; ½ Lives for P—N Bond Hydrolysis, pH 5.5 (result in words) ([1]; pH 5.5): Unstable; ½ Lives for P—N Bond Hydrolysis, pH 6.5 (result in words) [1]: Unstable; ½ Lives for P—N Bond Hydrolysis, pH 7.4 (result in words) [1]: Unstable"
CN(CCc1ccccc1)P(=O)(O)OCCCc1ccccc1 [Entry H133],–,9.6 hr,–,–,–,"½ Life for P—N Bond Hydrolysis, pH 5.5, second value in parentheses ([1]; pH 5.5, value in parentheses, meaning not explained): 1.9 hr"
O=P(O)(Nc1ccccc1)OCCCc1ccccn1 [Entry H45],1.6 day days,2.0 days,8 days,4 day days,8.9 day days,–
Cc1ccc(C(=O)NC(CCOP(=O)(O)N(C)CCc2ccccc2)C(=O)O)cc1 (stereo not drawn) [Entry H179],–,9.62 hr,–,2 Days days,0.96 hr,–
CN(c1ccccc1)P(=O)(O)OCCCc1cccnc1 [Entry H11],0.48 hr,9.6 hr,1.1 days,10 day days,–,–
O=P(O)(Nc1ccccc1)OCCCc1cccnc1 [Entry H7],1.6 day days,16 day days,8 days,27 day days,133 days,"½ Lives for P—N Bond Hydrolysis, pH 4.5 (result in words) [1]: Stable; ½ Lives for P—N Bond Hydrolysis, pH 6.5 (result in words) [1]: STABLE"
CN(c1ccccc1)P(=O)(O)OCc1ccccc1C(=O)O [Entry I11],–,14.4 min,57.8 min,6.42 hr,–,–
O=P(O)(NCCc1ccccc1)OCCc1ccccn1 [Entry H119],–,0.13 hr,0.32 hr,2.1 hr,–,"½ Lives for P—N Bond Hydrolysis, pH 3 (result in words) [1]: Unstable"
CN(CCc1ccccc1)P(=O)(O)OCCCc1cccnc1 [Entry H9],0.48 hr,3.2 hr,19.3 hr,2.7 days,–,"½ Life for P—N Bond Hydrolysis, Plasma ([2]; Plasma (pH 7.23)): 27.5 h"
O=P(O)(NCCc1ccccc1)OCCCc1ccccn1 [Entry H41],2.1 hr,19.3 hr,24.1 hr,11 days,9.63 hr,–
CN(CCc1ccccc1)P(=O)(O)OCCCc1ccccn1 [Entry H43],0.21 hr,1.2 hr,3.85 hr,21.4 hr,–,"½ Life for P—N Bond Hydrolysis, Plasma ([2]; Plasma (pH 7.38)): 19.3 h"
